Measured values as given in patent US8574563B2 (Bristol-Myers Squibb Company, priority 2006, dated 2013).
Like-named read-outs stand apart in the source and are kept apart here.

System: HCV 1b-377-neo replicon cells
Test: HCV replicon assay, HCV 1b-377-neo replicon cells (1b FRET)
Format: cell-based, Hepatitis C virus genotype 1b
In short: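 FRET-based replicon assay in HCV 1b-377-neo cells, including a comparison line carrying the NS5A Y2065H mutation that confers resistance to a reference compound.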

[1] = Hepatitis C virus, HCV 1b-377-neo replicon cells, HCV 1b genotype, read-out: EC50 range against HCV 1b (Table 2, Range)
[2] = HCV 1b-377-neo replicon cells, HCV 1b genotype, read-out: EC50 range against HCV 1b (Table 2, Range)

Compound	EC50 [1]	also measured
COC(=O)N[C@@H](C(=O)N1CCC[C@H]1c1nc(-c2ccc(-c3ccc(-c4cnc([C@@H]5CC6CCCCC6N5C(=O)[C@H](NC(=O)OC)c5ccccc5)[nH]4)cc3)cc2)c[nH]1)c1ccccc1 (relative stereo) [Example F8, methyl rel-((1R)-2-((2S)-2-(4-(4′-(2-((2S)-1-((2R)-2-((methoxycarbonyl)amino)-2-phenylacetyl)octahydro-1H-indol-2-yl)-1H-imidazol-5-yl)-4-biphenylyl)-1H-imidazol-2-yl)-1-pyrrolidinyl)-2-oxo-1-phenylethyl)carbamate]	0.001 to 0.999 nM	
CC(C)[C@H](NS(=O)(=O)C(C)C)C(=O)N1CCC[C@H]1c1ncc(-c2ccc(-c3ccc(-c4cnc([C@@H]5CCCN5C(=O)[C@@H](NS(=O)(=O)N(C)C)C(C)C)[nH]4)cc3)cc2)[nH]1 [Example F65, N—((S)-1-((S)-2-(5-(4′-(2-((S)-1-((S)-2-(N,N-dimethylsulfamoylamino)-3-methylbutanoyl)pyrrolidin-2-yl)-1H-imidazol-5-yl)biphenyl-4-yl)-1H-imidazol-2-yl)pyrrolidin-1-yl)-3-methyl-1-oxobutan-2-yl)propane-2-sulfonamide]		EC50 (HCV 1b replicon, FRET, read-out: 1b Fret (EC50 μM)): 210 nM; EC50 [2]: 100 to 999 nM
COC(=O)N[C@@H](C)C(=O)N1CCC[C@H]1c1ncc(-c2ccc(-c3ccc(-c4cnc([C@@H]5CCCN5C(=O)[C@@H](Nc5cccnc5)C(C)C)[nH]4)cc3)cc2)[nH]1 [cj-20a, methyl ((1S)-1-methyl-2-oxo-2-((2S)-2-(5-(4′-(2-((2S)-1-(N-3-pyridinyl-L-valyl)-2-pyrrolidinyl)-1H-imidazol-5-yl)-4-biphenylyl)-1H-imidazol-2-yl)-1-pyrrolidinyl)ethyl)carbamate]	0.001 to 0.999 nM	
CCN(CC)[C@@H](C(=O)N1CCC[C@H]1c1ncc(-c2ccc(-c3ccc(-c4cnc([C@@H]5CCCN5C(=O)C5(NC(=O)OC)CCCC5)[nH]4)cc3)cc2)[nH]1)c1ccccc1 [Example M42, methyl (1-(((2S)-2-(5-(4′-(2-((2S)-1-((2R)-2-(diethylamino)-2-phenylacetyl)-2-pyrrolidinyl)-1H-imidazol-5-yl)-4-biphenylyl)-1H-imidazol-2-yl)-1-pyrrolidinyl)carbonyl)cyclopentyl) carbamate]		EC50 [2]: 1 to 99 nM
COC(=O)c1nc([C@@H]2CCCN2C(=O)[C@@H](c2ccccc2)N2CCCCC2)[nH]c1-c1ccc(-c2ccc(-c3cnc([C@@H]4CCCN4C(=O)[C@@H](c4ccccc4)N4CCCCC4)[nH]3)cc2)cc1 [Example J18, methyl 2-((2S)-1-((2R)-2-phenyl-2-(1-piperidinyl)acetyl)-2-pyrrolidinyl)-5-(4′-(2-((2S)-1-((2R)-2-phenyl-2-(1-piperidinyl)acetyl)-2-pyrrolidinyl)-1H-imidazol-5-yl)-4-biphenylyl)-1H-imidazole-4-carboxylate]	0.001 to 0.999 nM	
CN(CC(=O)N1CCC[C@H]1c1ncc(-c2ccc(-c3ccc(-c4cnc([C@@H]5CCCN5C(=O)CN(C)Cc5ccccc5)[nH]4)cc3)cc2)[nH]1)Cc1ccccc1 [Example 24-4e, 2,2′-(4,4′-biphenyldiylbis(1H-imidazole-5,2-diyl(2S)-2,1-pyrrolidinediyl))bis(N-benzyl-N-methyl-2-oxoethanamine)]	1 to 99 nM	
COC(=O)N[C@@H](C(=O)N1CCC[C@H]1c1ncc(-c2ccc(-c3ccc(-c4[nH]c([C@@H]5CCCN5C(=O)[C@H](NC(=O)OC)c5ccccc5)nc4C(N)=O)cc3)cc2)[nH]1)c1ccccc1 [Example J29, methyl ((1R)-2-((2S)-2-(4-carbamoyl-5-(4′-(2-((2S)-1-((2R)-2-((methoxycarbonyl)amino)-2-phenylacetyl)-2-pyrrolidinyl)-1H-imidazol-5-yl)-4-biphenylyl)-1H-imidazol-2-yl)-1-pyrrolidinyl)-2-oxo-1-phenylethyl)carbamate]	0.001 to 0.999 nM	
CCN(CC)[C@@H](C(=O)N1CCC[C@H]1c1ncc(-c2ccc(-c3ccc(-c4cnc([C@@H]5CCCN5C(=O)[C@@H](NC(=O)OC)C5CC5)[nH]4)cc3)cc2)[nH]1)c1ccccc1 [Example M57, methyl ((1S)-1-cyclopropyl-2-((2S)-2-(5-(4′-(2-((2S)-1-((2R)-2-(diethylamino)-2-phenylacetyl)-2-pyrrolidinyl)-1H-imidazol-5-yl)-4-biphenylyl)-1H-imidazol-2-yl)-1-pyrrolidinyl)-2-oxoethyl)carbamate]	1 to 99 nM	
COC(=O)N[C@@H](C(=O)N1CCC[C@H]1c1ncc(-c2ccc(-c3ccc(-c4cnc([C@@H]5CCCN5C(=O)[C@H](NC(=O)OC)c5ccccc5)[nH]4)cc3C)cc2)[nH]1)c1ccccc1 [Example 124, dimethyl ((2-methyl-4,4′-biphenyldiyl)bis(1H-imidazole-5,2-diyl(2S)-2,1-pyrrolidinediyl((1R)-2-oxo-1-phenyl-2,1-ethanediyl)))biscarbamate]	0.001 to 0.999 nM	
COC(=O)N[C@@H]1CC[C@H](C(=O)N2CCC[C@H]2c2ncc(-c3ccc(-c4ccc(-c5cnc([C@@H]6CCCN6C(=O)[C@H]6CC[C@@H](NC(=O)OC)C6)[nH]5)cc4)cc3)[nH]2)C1 [cj-144, dimethyl (4,4′-biphenyldiylbis(1H-imidazole-5,2-diyl(2S)-2,1-pyrrolidinediylcarbonyl(1R,3S)-3,1-cyclopentanediyl))biscarbamate]	0.001 to 0.999 nM	
CCN(C1CC1)[C@@H](C(=O)N1CCC[C@H]1c1ncc(-c2ccc(-c3ccc(-c4cnc([C@@H]5CCCN5C(=O)[C@@H](c5ccccc5)N(CC)C5CC5)[nH]4)cc3)cc2)[nH]1)c1ccccc1 [Example M3, N,N′-(4,4′-biphenyldiylbis(1H-imidazole-5,2-diyl(2S)-2,1-pyrrolidinediyl((1R)-2-oxo-1-phenyl-2,1-ethanediyl)))bis(N-ethylcyclopropanamine)]	1 to 99 nM	
COC(=O)N[C@H](C(=O)N1CCC[C@H]1c1ncc(-c2ccc(-c3ccc(-c4cnc([C@@H]5CCCN5C(=O)[C@@H](NC(=NC#N)N(C)C)C(C)C)[nH]4)cc3)cc2)[nH]1)C(C)C [cj-17, methyl ((1S)-1-(((2S)-2-(5-(4′-(2-((2S)-1-(N-(cyano(dimethyl)carbamimidoyl)-L-valyl)-2-pyrrolidinyl)-1H-imidazol-5-yl)-4-biphenylyl)-1H-imidazol-2-yl)-1-pyrrolidinyl)carbonyl)-2-methylpropyl)carbamate]	0.001 to 0.999 nM	
C=CC[C@H](NC(=O)OC)C(=O)N1CCC[C@H]1c1ncc(-c2ccc(-c3ccc(-c4cnc([C@@H]5CCCN5C(=O)[C@@H](NC(=O)OC)C(C)C)[nH]4)cc3)cc2)[nH]1 [Example M76, methyl ((1S)-1-(((2S)-2-(5-(4′-(2-((2S)-1-((2S)-2-((methoxycarbonyl)amino)-3-methylbutanoyl)-2-pyrrolidinyl)-1H-imidazol-5-yl)-4-biphenylyl)-1H-imidazol-2-yl)-1-pyrrolidinyl)carbonyl)-3-buten-1-yl)carbamate]	1 to 99 nM	
COC(=O)N[C@H](C(=O)N1C[C@H](O)C[C@H]1c1ncc(-c2ccc(-c3ccc(-c4cnc([C@@H]5C[C@@H](O)CN5C(=O)[C@@H](NC(=O)OC)C5CC5)[nH]4)cc3)cc2)[nH]1)C1CC1 [JG-6, dimethyl (4,4′-biphenyldiylbis(1H-imidazole-5,2-diyl((2S,4R)-4-hydroxy-2,1-pyrrolidinediyl)((1S)-1-cyclopropyl-2-oxo-2,1-ethanediyl)))biscarbamate]	1 to 99 nM	
COC(=O)N[C@H](C(=O)N1C[C@@H](O)C[C@H]1c1ncc(-c2ccc(-c3ccc(-c4cnc([C@@H]5C[C@H](O)CN5C(=O)[C@@H](NC(=O)OC)C(C)C)[nH]4)cc3)cc2)[nH]1)C(C)C [JG-9, methyl ((1S)-1-(((2S,4S)-4-hydroxy-2-(5-(4′-(2-((2S,4S)-4-hydroxy-1-((2S)-2-((methoxycarbonyl)amino)-3-methylbutanoyl)-2-pyrrolidinyl)-1H-imidazol-5-yl)-4-biphenylyl)-1H-imidazol-2-yl)-1-pyrrolidinyl)carbonyl)-2-methylpropyl)carbamate]	0.001 to 0.999 nM	
CCC(C)[C@@H](C(=O)N1CCC[C@H]1c1nc(-c2ccc(-c3ccc(-c4cnc([C@@H]5CCCN5C(=O)[C@H](C(C)CC)N(C)C(=O)OC(C)(C)C)[nH]4)cc3)cc2)c[nH]1)N(C)C(=O)OC(C)(C)C (stereo partly drawn) [Example F29, tert-butyl ((1S)-1-(((2S)-2-(5-(4′-(2-((2S)-1-((2S)-2-((tert-butoxycarbonyl)(methyl)amino)-3-methylpentanoyl)-2-pyrrolidinyl)-1H-imidazol-4-yl)-4-biphenylyl)-1H-imidazol-2-yl)-1-pyrrolidinyl)carbonyl)-2-methylbutyl)methylcarbamate]	1 to 99 nM	
COC(=O)N[C@@H](C(=O)N1CCC[C@H]1c1ncc(-c2ccc(-c3ccc(-c4cnc([C@@H]5CCCN5C(=O)c5cscn5)[nH]4)cc3)cc2)[nH]1)c1ccccc1 [Example 84-44, methyl ((1R)-2-oxo-1-phenyl-2-((2S)-2-(5-(4′-(2-((2S)-1-(1,3-thiazol-4-ylcarbonyl)-2-pyrrolidinyl)-1H-imidazol-5-yl)-4-biphenylyl)-1H-imidazol-2-yl)-1-pyrrolidinyl)ethyl)carbamate]	0.001 to 0.999 nM	
COCC(=O)N[C@H](C(=O)N1CCC[C@H]1c1nc(-c2ccc(-c3ccc(-c4c[nH]c([C@@H]5CCCN5C(=O)[C@@H](NC(=O)COC)C(C)C)n4)cc3)cc2)c[nH]1)C(C)C [Example F62, 2-methoxy-N-((1S)-1-(((2S)-2-(4-(4′-(2-((2S)-1-((2S)-2-((methoxyacetyl)amino)-3-methylbutanoyl)-2-pyrrolidinyl)-1H-imidazol-4-yl)-4-biphenylyl)-1H-imidazol-2-yl)-1-pyrrolidinyl)carbonyl)-2-methylpropyl)acetamide]	1 to 99 nM	
O=C(C(c1ccccc1)N1C2CCC1CC2)N1CCC[C@H]1c1ncc(-c2ccc(-c3ccc(-c4cnc([C@@H]5CCCN5C(=O)C(c5ccccc5)N5C6CCC5CC6)[nH]4)cc3)cc2)[nH]1 (stereo partly drawn) [Example M1, 7,7′-(4,4′-biphenyldiylbis(1H-imidazole-5,2-diyl(2S)-2,1-pyrrolidinediyl(2-oxo-1-phenyl-2,1-ethanediyl)))bis(7-azabicyclo[2.2.1]heptane)]		EC50 range against HCV 1b (Table 2, Range) (HCV 1b-377-neo replicon cells, HCV 1b genotype): >A
